From patent US20230002359A1, “PESTICIDALLY ACTIVE FUSED BICYCLIC HETEROAROMATIC COMPOUNDS” (priority 2019, published 2023)

How the values were obtained:
Format in all cases: in vivo
[1] = system: Spodoptera littoralis (Egyptian Cotton Leaf Worm); experiment: Example B7: Spodoptera littoralis (Egyptian cotton leaf worm), cotton leaf discs sprayed, L1 larvae; conditions: foliar, 72 h, application rate of 200 ppm, 3 days after infestation, L1 larvae, read-out: control in at least one of the three categories (mortality, anti-feedant effect, or growth inhibition)
Procedure, shortened: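 Leaf discs on agar; spray, aqueous dilution of 10′000 ppm DMSO stock; dry; 5 L1 larvae/disc. Read at 3 d post-infestation: mortality, antifeedant, growth inhibition vs untreated. Control = ≥1 category above untreated.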

[2] = system: Diabrotica Balteata (Corn Root Worm); experiment: Example B1: Diabrotica balteata (corn root worm), maize sprouts sprayed, L2 larvae; conditions: 96 h, application rate of 200 ppm, 4 days after infestation, L2 larvae, read-out: control in at least one of the two categories (mortality or growth inhibition)
Procedure, shortened: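 Read-out is mortality plus growth inhibition relative to untreated controls, assessed 4 days after infestation. Sprouts resting on agar are sprayed with aqueous solutions derived from 10′000 ppm DMSO stocks and left to dry before L2 larvae (6 to 10 per well) are added.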

[3] = system: Euschistus heros (Neotropical Brown Stink Bug); experiment: Example B2: Euschistus heros (neotropical brown stink bug), soybean leaves sprayed, N2 nymphs; conditions: 120 h, application rate of 200 ppm, 5 days after infestation, N2 nymphs, read-out: control in at least one of the two categories (mortality or growth inhibition)
Experimental: Soybean leaves on agar in 24-well microtiter plates were sprayed with aqueous test solutions prepared from 10′000 ppm DMSO stock solutions. After drying the leaves were infested with N2 nymphs. The samples were assessed for mortality and growth inhibition in comparison to untreated samples 5 days after infestation.

[4] = system: Plutella xylostella (Diamond Back Moth); experiment: Example B4: Plutella xylostella (diamond back moth), artificial diet, eggs, 24-well; conditions: 192 h, application rate of 200 ppm, 8 days after infestation, eggs, read-out: control in at least one of the two categories (mortality or growth inhibition)
Experimental: 24-well microtiter plates with artificial diet were treated with aqueous test solutions prepared from 10′000 ppm DMSO stock solutions by pipetting. After drying, Plutella eggs were pipetted through a plastic stencil onto a gel blotting paper and the plate was closed with it. The samples were assessed for mortality and growth inhibition in comparison to untreated samples 8 days after infestation.

[5] = system: Myzus persicae (Green Peach Aphid); experiment: Example B6: Myzus persicae (green peach aphid) intrinsic activity, sucrose solution; conditions: 120 h, test rate of 12 ppm, 5 days after infestation, intrinsic activity, read-out: mortality
Procedure, shortened: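 Compounds from 10′000 ppm DMSO stocks were mixed into sucrose solution in 24-well plates sealed with Parafilm. Aphid-infested pea seedlings were set on the membrane and the plate inverted so aphids fed through it. Mortality scored 5 days after infestation.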

[6] = system: Myzus persicae (Green Peach Aphid); experiment: Example B5: Myzus persicae (green peach aphid) feeding/contact activity, sunflower leaf discs; conditions: foliar, 144 h, application rate of 200 ppm, 6 days after infestation
Experimental: Sunflower leaf discs were placed onto agar in a 24-well microtiter plate and sprayed with aqueous test solutions prepared from 10′000 ppm DMSO stock solutions. After drying, the leaf discs were infested with an aphid population of mixed ages. The samples were assessed for mortality 6 days after infestation.

[7] = system: Chilo suppressalis (Striped Rice Stemborer); experiment: Example B3: Chilo suppressalis (striped rice stemborer), artificial diet, L2 larvae; conditions: 144 h, application rate of 200 ppm, 6 days after infestation, L2 larvae, read-out: control in at least one of the three categories (mortality, anti-feedant effect, or growth inhibition)
Procedure, shortened: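 Artificial diet in wells was treated with aqueous test solutions diluted from 10'000 ppm DMSO stocks, dried, then infested with 6-8 L2 larvae per well. Mortality, anti-feeding effect and growth inhibition were scored against untreated samples 6 days after infestation; control means any category exceeds the untreated sample.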

C[C@@H](c1ncnn1-c1ccc(C#N)cn1)N(CC1CC1)c1ncnc2c(C(F)(F)F)cc(Cl)cc12 [P.264, 6-[5-[(1S)-1-[[6-chloro-8-(trifluoromethyl)quinazolin-4-yl]-(cyclopropylmethyl)amino]ethyl]-1,2,4-triazol-1-yl]pyridine-3-carbonitrile]
≥ 80%: percent control (mortality, anti-feedant effect or growth inhibition) at 200 ppm [1] | percent control (mortality or growth inhibition) at 200 ppm [2] | percent control (mortality or growth inhibition) at 200 ppm [3] | percent control (mortality or growth inhibition) at 200 ppm [4] | mortality at 12 ppm [5] | mortality at 200 ppm [6] | percent control (mortality, anti-feedant effect or growth inhibition) at 200 ppm [7]

C[C@@H](c1ncnn1-c1ccc(C#N)cn1)N(C)c1ncnc2c(C(F)(F)F)cc(C(F)(F)F)cc12 [P.54, 6-[5-[(1S)-1-[[6,8-bis(trifluoromethyl)quina-zolin-4-yl]-methyl-amino]ethyl]-1,2,4-triazol-1-yl]pyridine-3-carbonitrile]
≥ 80%: percent control (mortality, anti-feedant effect or growth inhibition) at 200 ppm [1] | percent control (mortality or growth inhibition) at 200 ppm [2] | percent control (mortality or growth inhibition) at 200 ppm [3] | percent control (mortality or growth inhibition) at 200 ppm [4] | mortality at 12 ppm [5] | mortality at 200 ppm [6] | percent control (mortality, anti-feedant effect or growth inhibition) at 200 ppm [7]

CC(c1ncnn1-c1ccc(C#N)cn1)N(C)c1ncnc2c(C(F)(F)F)cc(OC(F)(F)F)cc12 (stereo not shown) [P.221, 6-[5-[1-[methyl-[6-(trifluoromethoxy)-8-(trifluoromethyl)quinazolin-4-yl]amino]ethyl]-1,2,4-triazol-1-yl]pyridine-3-carbonitrile]
≥ 80%: percent control (mortality, anti-feedant effect or growth inhibition) at 200 ppm [1] | percent control (mortality or growth inhibition) at 200 ppm [2] | percent control (mortality or growth inhibition) at 200 ppm [3] | percent control (mortality or growth inhibition) at 200 ppm [4] | mortality at 12 ppm [5] | mortality at 200 ppm [6] | percent control (mortality, anti-feedant effect or growth inhibition) at 200 ppm [7]

C[C@@H](c1ncnn1-c1ncccn1)N(C)c1ncnc2c(C(F)(F)C3CC3)cc(C(F)(F)F)cc12 [P.201, 8-[cyclopropyl(difluoro)meth-yl]-N-methyl-N-[(1S)-1-(2-pyrimidin-2-yl-1,2,4-triazol-3-yl)ethyl]-6-(trifluoromethyl)quinazolin-4-amine]
≥ 80%: percent control (mortality, anti-feedant effect or growth inhibition) at 200 ppm [1] | percent control (mortality or growth inhibition) at 200 ppm [2] | percent control (mortality or growth inhibition) at 200 ppm [3] | percent control (mortality or growth inhibition) at 200 ppm [4] | mortality at 12 ppm [5] | mortality at 200 ppm [6] | percent control (mortality, anti-feedant effect or growth inhibition) at 200 ppm [7]

CC(c1ncnn1-c1ncccn1)N(C)c1ncnc2c(C(F)(F)F)cc(C(F)(F)F)cc12 (stereo not shown) [P.27, N-methyl-N-[1-(2-pyrimidin-2-yl-1,2,4-triazol-3-yl)ethyl]-6,8-bis(trifluoromethyl)quinazolin-4-amine]
≥ 80%: percent control (mortality, anti-feedant effect or growth inhibition) at 200 ppm [1] | percent control (mortality or growth inhibition) at 200 ppm [2] | percent control (mortality or growth inhibition) at 200 ppm [3] | percent control (mortality or growth inhibition) at 200 ppm [4] | mortality at 12 ppm [5] | mortality at 200 ppm [6] | percent control (mortality, anti-feedant effect or growth inhibition) at 200 ppm [7]

CC(Nc1ncnc2c(OC(F)(F)F)cc(Br)cc12)c1ncnn1-c1ncccn1 (stereo not shown) [P.248, 6-bromo-N-[1-(2-pyrimidin-2-yl-1,2,4-triazol-3-yl)ethyl]-8-(trifluoromethoxy)quina-zolin-4-amine]
≥ 80%: percent control (mortality, anti-feedant effect or growth inhibition) at 200 ppm [1] | percent control (mortality or growth inhibition) at 200 ppm [2] | percent control (mortality or growth inhibition) at 200 ppm [3] | percent control (mortality or growth inhibition) at 200 ppm [4] | mortality at 12 ppm [5] | mortality at 200 ppm [6] | percent control (mortality, anti-feedant effect or growth inhibition) at 200 ppm [7]

C[C@@H](c1ncnn1-c1ncccn1)N(C)c1ncnc2c(I)cc(C(F)(F)F)cc12 [P.219, 8-iodo-N-methyl-N-[(1S)-1-(2-pyrimidin-2-yl-1,2,4-triazol-3-yl)ethyl]-6-(trifluoromethyl)quinazolin-4-amine]
≥ 80%: percent control (mortality, anti-feedant effect or growth inhibition) at 200 ppm [1] | percent control (mortality or growth inhibition) at 200 ppm [2] | percent control (mortality or growth inhibition) at 200 ppm [3] | percent control (mortality or growth inhibition) at 200 ppm [4] | mortality at 12 ppm [5] | mortality at 200 ppm [6] | percent control (mortality, anti-feedant effect or growth inhibition) at 200 ppm [7]

C[C@@H](c1ncnn1-c1ccc(C#N)cn1)N(C)c1ncnc2c(I)cc(C(F)(F)F)cc12 [P.228, 6-[5-[(1S)-1-[[8-iodo-6-(trifluoromethyl)quinazolin-4-yl]-methyl-amino]ethyl]-1,2,4-triazol-1-yl]pyridine-3-carbonitrile]
≥ 80%: percent control (mortality, anti-feedant effect or growth inhibition) at 200 ppm [1] | percent control (mortality or growth inhibition) at 200 ppm [2] | percent control (mortality or growth inhibition) at 200 ppm [3] | percent control (mortality or growth inhibition) at 200 ppm [4] | mortality at 12 ppm [5] | mortality at 200 ppm [6] | percent control (mortality, anti-feedant effect or growth inhibition) at 200 ppm [7]

C[C@H](Nc1ncnc2c(C(F)(F)F)cc(C(F)(F)F)cc12)c1ncnn1-c1ncccn1 [P.1, N-[(1S)-1-(2-pyrimidin-2-yl-1,2,4-triazol-3-yl)ethyl]-6,8-bis(trifluoromethyl)quina-zolin-4-amine]
≥ 80%: percent control (mortality, anti-feedant effect or growth inhibition) at 200 ppm [1] | percent control (mortality or growth inhibition) at 200 ppm [2] | percent control (mortality or growth inhibition) at 200 ppm [3] | percent control (mortality or growth inhibition) at 200 ppm [4] | mortality at 12 ppm [5] | mortality at 200 ppm [6] | percent control (mortality, anti-feedant effect or growth inhibition) at 200 ppm [7]

CCN(c1ncnc2c(C(F)(F)F)cc(C(F)(F)F)cc12)C(C)c1ncnn1-c1ccc(C#N)cn1 (stereo not shown) [P.6, 6-[5-[1-[[6,8-bis(trifluoromethyl)quina-zolin-4-yl]-ethyl-amino]ethyl]-1,2,4-triazol-1-yl]pyridine-3-carbonitrile]
≥ 80%: percent control (mortality, anti-feedant effect or growth inhibition) at 200 ppm [1] | percent control (mortality or growth inhibition) at 200 ppm [2] | percent control (mortality or growth inhibition) at 200 ppm [3] | percent control (mortality or growth inhibition) at 200 ppm [4] | mortality at 12 ppm [5] | mortality at 200 ppm [6] | percent control (mortality, anti-feedant effect or growth inhibition) at 200 ppm [7]

C[C@H](c1ncnn1-c1ccc(C#N)cn1)N(C)c1ncnc2c(C(F)(F)F)cc(Br)cc12 [P.203, 6-[5-[(1R)-1-[[6-bromo-8-(trifluoromethyl)quinazolin-4-yl]-methyl-amino]ethyl]-1,2,4-triazol-1-yl]pyridine-3-carbonitrile]
≥ 80%: percent control (mortality, anti-feedant effect or growth inhibition) at 200 ppm [1] | percent control (mortality or growth inhibition) at 200 ppm [2] | percent control (mortality or growth inhibition) at 200 ppm [3] | percent control (mortality or growth inhibition) at 200 ppm [4] | mortality at 12 ppm [5] | mortality at 200 ppm [6] | percent control (mortality, anti-feedant effect or growth inhibition) at 200 ppm [7]

CCN(c1ncnc2c(C(F)(F)F)cc(C(F)(F)F)cc12)[C@@H](C)c1ncnn1-c1ccc(C#N)cn1 [P.168, 6-[5-[(1S)-1-[[6,8-bis(trifluoromethyl)quina-zolin-4-yl]-ethyl-amino]ethyl]-1,2,4-triazol-1-yl]pyridine-3-carbonitrile]
≥ 80%: percent control (mortality, anti-feedant effect or growth inhibition) at 200 ppm [1] | percent control (mortality or growth inhibition) at 200 ppm [2] | percent control (mortality or growth inhibition) at 200 ppm [3] | percent control (mortality or growth inhibition) at 200 ppm [4] | mortality at 12 ppm [5] | mortality at 200 ppm [6] | percent control (mortality, anti-feedant effect or growth inhibition) at 200 ppm [7]

CC(c1ncnn1-c1ncccn1)N(C)c1ncnc2c(Br)cc(Cl)cc12 (stereo not shown) [P.172, 8-bromo-6-chloro-N-methyl-N-[1-(2-pyrimidin-2-yl-1,2,4-triazol-3-yl)ethyl]quinazolin-4-amine]
≥ 80%: percent control (mortality, anti-feedant effect or growth inhibition) at 200 ppm [1] | percent control (mortality or growth inhibition) at 200 ppm [2] | percent control (mortality or growth inhibition) at 200 ppm [3] | percent control (mortality or growth inhibition) at 200 ppm [4] | mortality at 12 ppm [5] | mortality at 200 ppm [6] | percent control (mortality, anti-feedant effect or growth inhibition) at 200 ppm [7]
